{
  "source": "paper PMC8820820",
  "about": "“Feasibility and safety of targeting mitochondria for cancer therapy – preclinical characterization of gamitrinib, a first-in-class, mitochondriaL-targeted small molecule Hsp90 inhibitor” (Cancer Biology & Therapy, 2022)",
  "key": {"[1]": {"assay": "Stability in human plasma"}, "Caco-2 intestinal cells": {"system": "Caco-2 intestinal cells", "assay": "Bidirectional Caco2 cell monolayer permeability", "settings": "Caco-2", "experimental": "Caco-2 and HEK293 cells were obtained from the American Type Culture Collection (ATCC, Manassas, VA) and grown in culture according to the supplier’s specifications. In some experiments, HEK293 cells were stably transfected with hERG cDNA, and polyclonal cultures were maintained in the presence of 250 µg/ml geneticin (G418).\nBidirectional Caco2 cell monolayer permeability. Caco2 cells (2x10^4/well) were seeded onto apical chambers of a 24-multiwell insert plate and incubated at 37°C in 5% CO2. After 21 d, the transepithelial electrical resistance (TEER) in ohms was read for each insert well as a quality control for monolayer integrity (>900 ohms or 300 ohms cm^2). The cell monolayers were incubated with 400 µL transport buffer on the apical (A) and 1.2 mL on the basolateral (B) sides for 30 min. After preincubation, dosing solution was added to the apical (400 µL, A-to-B, donor) or basolateral sides (1.2 mL, B-to-A, donor) or receiving buffer to the apical (400 µL, B-to-A, receiver) or basolateral sides (1.2 mL, A-to-B, receiver) for 90 min at 37°C in 5% CO2. […] Papp’A>B (nm/s) was calculated with Equation 1.\nPapp Efflux Ratio (ER) was calculated with Equation 2.\nER=Papp,B>APapp,A>BEquation 2: […]\nPropranolol (high permeability marker, non-P-gp substate) and digoxin (P-gp substrate) were used as controls."}, "beagle dogs": {"system": "beagle dogs", "assay": "Toxicity in beagle dogs", "format": "in vivo", "experimental": "Eighteen male and female (5–6 mo old) purebred beagle dogs (Cumberland, VA) were acclimated for 47 d (20°C to 26°C, relative humidity 30–70%, 10 or greater air changes/h, and a 12-h light/dark cycle) prior to study initiation. Animals were given water ad libitum and Certified Canine Diet #5007 (PMI Nutrition International Certified LabDiet®) for 4 to 5 h each day. At study initiation, animal body weights ranged from 8.6 to 11.5 kg for males and 6.0 to 9.4 kg for females. At least 1 week prior to initiation of dosing, animals were fasted overnight, anesthetized, and a catheter attached to a subcutaneous vascular access port was surgically implanted into a jugular vein. Animals were acclimated to infusion jackets prior to catheter implantation surgery. Animals were infused with sterile saline at a dose rate of 5 mL/h when the vascular access ports were accessed and when animals were connected to the infusion system (except when dosed with the test or vehicle control article). The patency of each catheter was checked as needed. Prednisolone tablets were administered orally at 2 mg/kg the night prior to dosing. Diphenhydramine (5 mg/kg; IM injection 0.1 mL/kg, 50 mg/mL) was administered prior to dosing and post the start of infusion (d 1 only). Male and female dogs received dose levels of Gamitrinib of 1.25, 3.33 and 6.25 mg/kg/dose formulated as indicated above during a 1 h infusion on d 1, 8, 11, 15, 18, 22, 25, 29, 32, and 36 at a volume of 2 mL/kg. The vehicle control was as above. […] Dosing was stopped, and 23 of 24 animals were administered additional diphenhydramine, 11 were administered Flunixin meglumine and buprenorphine, and 6 were administered acepromazine. Symptoms subsided in all animals after completion of these interventions. As a result of these observations, the polysorbate levels, which were increased from 0.025% (w/v) to 0.125% (w/v) to minimize precipitation, were returned to the original concentrations; 2 mg/kg prednisone was administered orally the night prior to dosing; and the diphenhydramine pretreatment dose was updated to 5 mg/kg 15 to 30 min prior to dosing. Detailed observations were conducted for each animal up to seven times during the predose phase, prior to dosing on d 1, 8, 15, 22, 29, and 36 of the dosing phase, and on d 1, 7, and 14 of the recovery phase. Blood samples (1 mL) were collected via the cephalic vein 5, 15, and 30 min and 1, 4, 8, and 24 h post the end of infusion on d 8 and 36 of the dosing phase. Formalin-fixed and paraffin-embedded tissue samples collected at the end of the study (d 39) were processed for histologic examination."}, "Kv1.5": {"molecular_target": "Kv1.5 (Homo sapiens, UniProt P22460)", "sequence (P22460 whole entry)": "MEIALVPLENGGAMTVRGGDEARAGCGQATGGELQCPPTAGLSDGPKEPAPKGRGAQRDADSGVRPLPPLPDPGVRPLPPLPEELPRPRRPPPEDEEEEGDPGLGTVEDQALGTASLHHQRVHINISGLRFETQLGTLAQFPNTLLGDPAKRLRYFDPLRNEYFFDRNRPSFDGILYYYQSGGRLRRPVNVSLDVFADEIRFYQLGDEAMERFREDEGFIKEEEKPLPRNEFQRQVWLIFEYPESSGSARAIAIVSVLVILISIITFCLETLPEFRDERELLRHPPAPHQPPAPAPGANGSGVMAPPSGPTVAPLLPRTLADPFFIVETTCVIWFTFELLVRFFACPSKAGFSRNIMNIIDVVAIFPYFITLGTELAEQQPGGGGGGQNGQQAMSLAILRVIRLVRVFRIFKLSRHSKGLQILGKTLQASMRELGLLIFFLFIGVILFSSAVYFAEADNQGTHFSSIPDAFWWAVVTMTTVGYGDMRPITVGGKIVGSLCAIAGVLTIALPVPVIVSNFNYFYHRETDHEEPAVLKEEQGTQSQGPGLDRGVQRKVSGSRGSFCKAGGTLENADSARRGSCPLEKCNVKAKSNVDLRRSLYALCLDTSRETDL", "assay": "Ion channel screening", "format": "cell-based", "settings": "10 µM", "source_text": "Ion channel screening. […] The parameters measured were the maximum inward current evoked on stepping to -20 mV from the 1st and 26th pulse. Human Kv4.3/KChIP2 currents were evoked from a holding potential of -80 mV by a series of four 500 msec pulses to 0 mV using a 1000 msec interval between pulses. The parameter measured was the amplitude of the outward current 50 msec after the onset of the 4th voltage step to 0 mV. […] Human Kv1.5 currents were evoked by a single pulse from a holding potential of -80 mV to a potential of 0 mV for 4 sec before returning to -80 mV. The parameters measured were the maximum amplitude of outward currents evoked at the beginning of the voltage pulse and at the end of the voltage step from -80 mV to 0 mV. Human KCNQ1/minK currents were evoked by a single pulse delivered from a holding potential of -80 mV to +60 mV for 4 sec before returning to -80 mV. The parameter measured was the maximum outward current evoked on stepping to +60 mV from the holding potential of -80 mV. hERG currents were evoked by a three-pulse protocol where voltage was first stepped to +40 mV for two sec from a holding potential of –80 mV to inactivate hERG channels. […] The parameter measured was the maximum inward current evoked upon stepping to -110 mV from the holding potential of -30 mV. […]"}, "Kir2.1": {"molecular_target": "T1, Kir2.1 (Homo sapiens, UniProt P63252)", "T1 sequence (P63252 1-427)": "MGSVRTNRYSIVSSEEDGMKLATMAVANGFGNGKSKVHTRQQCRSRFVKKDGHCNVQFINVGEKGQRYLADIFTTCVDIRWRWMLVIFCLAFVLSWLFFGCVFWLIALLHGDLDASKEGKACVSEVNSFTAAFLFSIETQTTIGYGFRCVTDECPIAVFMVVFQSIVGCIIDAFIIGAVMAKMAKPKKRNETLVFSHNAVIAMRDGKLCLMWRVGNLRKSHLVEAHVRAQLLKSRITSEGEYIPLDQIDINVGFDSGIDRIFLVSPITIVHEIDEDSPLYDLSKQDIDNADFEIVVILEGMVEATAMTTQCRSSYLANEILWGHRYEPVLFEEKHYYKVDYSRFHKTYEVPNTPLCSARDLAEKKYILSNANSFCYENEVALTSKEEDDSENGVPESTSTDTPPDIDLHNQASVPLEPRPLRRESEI", "assay": "Ion channel screening", "format": "cell-based", "settings": "10 µM, pulse 10", "source_text": "Ion channel screening. […] Human Kir2.1 currents were evoked from a holding potential of -20 mV by a series of 10 500 msec pulses to -120 mV using a 200 msec interval between pulses. The parameters measured were the amplitudes of the instantaneous inward currents evoked on stepping to -120 mV for the 1st pulse and the maximum inward current at the end of the 10th hyperpolarizing pulse. For all experiments, data were filtered for seal quality, seal drop, and current amplitude."}},
  "data": [
    {"smiles": "COC1C=CC=C(C)C(=O)NC2=CC(=O)C(NCCCCCC[P+](c3ccccc3)(c3ccccc3)c3ccccc3)=C(CC(C)CC(OC)C(O)C(C)C=C(C)C1OC(N)=O)C2=O.F[P-](F)(F)(F)(F)F", "note": "(stereo not shown) [Gamitrinib]", "values": [
      {"measurement": "average recovery", "setting": "[1]", "result": "82.8 ± 3", "unit": "%"},
      {"measurement": "stability in human plasma", "setting": "[1]", "result": 91.4, "unit": "%"},
      {"measurement": "Papp Efflux Ratio (ER)", "setting": "Caco-2 intestinal cells", "result": 5.77},
      {"measurement": "Papp, A>B", "setting": "Caco-2 intestinal cells", "result": 0.19, "unit": "×10⁻⁶ cm/s"},
      {"measurement": "Papp, B>A", "setting": "Caco-2 intestinal cells", "result": 1.094, "unit": "×10⁻⁶ cm/s"},
      {"measurement": "Pexact Efflux Ratio", "setting": "Caco-2 intestinal cells", "result": 5.54},
      {"measurement": "Pexact,A>B", "setting": "Caco-2 intestinal cells", "result": 0.197, "unit": "×10⁻⁶ cm/s"},
      {"measurement": "Pexact,B>A", "setting": "Caco-2 intestinal cells", "result": 1.092, "unit": "×10⁻⁶ cm/s"},
      {"measurement": "Bone marrow and liver parameters", "setting": "beagle dogs; dog, in vivo", "result": "unremarkable"},
      {"measurement": "organ weight", "setting": "beagle dogs; dog, in vivo", "result": "No Gamitrinib-related changes in organ weight"},
      {"measurement": "kidney microscopic findings", "setting": "beagle dogs; dog, in vivo, 6.25 mg/kg", "result": "slight to moderate kidney tubular degeneration/regeneration"},
      {"measurement": "serum urea nitrogen and creatinine", "setting": "beagle dogs; dog, in vivo, 6.25 mg/kg", "result": "trend of increased serum urea nitrogen and creatinine"},
      {"measurement": "NOAEL", "setting": "beagle dogs; dogs, IV for 36 d", "result": 3.33, "unit": "mg/kg/dose"},
      {"measurement": "highest non-severely toxic dose (HNSTD)", "setting": "beagle dogs; dogs, IV for 36 d", "result": 6.25, "unit": "mg/kg/dose"},
      {"measurement": "inhibition of Kv1.5 currents", "setting": "Kv1.5", "result": "6.6 ± 1.3", "unit": "%"},
      {"measurement": "inhibition of Kir2.1 currents", "setting": "Kir2.1", "result": "−7.3 ± 3.4", "unit": "%"}
    ]}
  ]
}
